Experimental data from patent US20200390100A1, “SUBSTITUTED N-HETEROCYCLYL- AND N-HETEROARYL-TETRAHYDROPYRIMIDINONES AND THE SALTS THEREOF, AND THE USE OF SAME AS HERBICIDAL ACTIVE SUBSTANCES” (Bayer Aktiengesellschaft, priority 2017, published 2020).

Legend:
Assay type in all cases: in vivo
Amaranthus retroflexus [1] = assay: Pre-emergence herbicidal action, greenhouse, 320 g/ha; settings: application rate 320 g/ha, scored visually after about 3 weeks vs untreated controls
Excerpt: (§1) Seeds of monocotyledonous and dicotyledonous weed plants and crop plants were placed in plastic or organic planting pots and covered with soil. The compounds of the invention, formulated in the form of wettable powders (WP) or as emulsion concentrates (EC), were then applied to the surface of the covering soil as aqueous suspension or emulsion with addition of 0.5% additive at a water application rate equivalent to […]. After the treatment, the pots were placed in a greenhouse and kept under good growth conditions for the test plants. After about 3 weeks, the effect of the preparations is scored visually in comparison with untreated controls as percentages. For example, 100% activity=the plants have died, 0% activity=like control plants. Tables B1 to B14 below show the effects of selected compounds of the general formula (I) according to Tables I.1 to I.150 on various harmful plants and at an application rate corresponding to 320 g/ha, which were obtained by the experimental procedure mentioned above.

Digitaria sanguinalis = assay: as above; settings: application rate 320 g/ha, Table B9
Excerpt: as §1

Polygonum convolvulus = assay: as above; settings: application rate 320 g/ha, scored visually after about 3 weeks vs untreated controls
Excerpt: as §1

Setaria viridis = assay: as above; settings: application rate 320 g/ha, Table B11
Excerpt: as §1

Viola tricolor = assay: as above; settings: application rate 320 g/ha, Table B8
Excerpt: as §1

Abutilon theophrasti [2] = assay: as above; settings: application rate 320 g/ha, scored visually after about 3 weeks vs untreated controls
Excerpt: as §1

Alopecurus myosuroides = assay: as above; settings: application rate 320 g/ha, scored visually after about 3 weeks vs untreated controls
Excerpt: as §1

Hordeum murinum = assay: as above; settings: application rate 320 g/ha, Table B14
Excerpt: as §1

Matricaria inodora [3] = assay: as above; settings: application rate 320 g/ha, scored visually after about 3 weeks vs untreated controls
Excerpt: as §1

Stellaria media [4] = assay: as above; settings: application rate 320 g/ha, scored visually after about 3 weeks vs untreated controls
Excerpt: as §1

Pharbitis purpurea = assay: as above; settings: application rate 320 g/ha, Table B12
Excerpt: as §1

Avena fatua = assay: as above; settings: application rate 320 g/ha, scored visually after about 3 weeks vs untreated controls
Excerpt: as §1

Amaranthus retroflexus [5] = assay: Herbicidal post-emergence action (Part 2), 1280 g/ha; settings: application rate 1280 g/ha, rated visually after about 3 weeks, Table C5
Description: (§2) Seeds of mono- and dicotyledonous weed plants were placed in plastic pots in sandy loam soil (doubly sown with in each case one species of mono- or dicotyledonous weed plants per pot), covered with soil and cultivated in a greenhouse under controlled growth conditions. 2 to 3 weeks after sowing, the test plants were treated at the one-leaf stage. The compounds of the invention, formulated in the form of wettable powders (WP) or as emulsion concentrates (EC), were applied onto the green parts of the plants as aqueous suspension or emulsion with addition of 0.5% additive at a water application rate of 600 liters per hectare (converted). After the test plants had been kept in the greenhouse under optimum growth conditions for about 3 weeks, the activity of the preparations was rated visually in comparison to untreated controls. For example, 100% activity=the plants have died, 0% activity=like control plants. Tables C1 to C7 below show the effects of selected compounds of the general formula (I) according to Tables 1.1 to 1.150 on various harmful plants and at an application rate corresponding to 1280 g/ha, which were obtained by the experimental procedure mentioned above.

Stellaria media [6] = assay: as above; settings: application rate 1280 g/ha, rated visually after about 3 weeks, Table C7
Description: as §2

Amaranthus retroflexus [7] = assay: Herbicidal pre-emergence action (Part 2), 1280 g/ha; settings: application rate 1280 g/ha, scored visually after about 3 weeks, Table D6
Excerpt: (§3) Seeds of mono- and dicotyledonous weed plants were placed in plastic pots in sandy loam soil (doubly sown with in each case one species of mono- or dicotyledonous weed plants per pot) and covered with soil. The compounds of the invention, formulated in the form of wettable powders (WP) or as emulsion concentrates (EC), were then applied onto the surface of the covering soil as aqueous suspension or emulsion with addition of 0.5% additive at a water application rate of 600 liters per hectare (converted). After the treatment, the pots were placed in a greenhouse and kept under good growth conditions for the test plants. After about 3 weeks, the effect of the preparations was scored visually in comparison with untreated controls as percentages. For example, 100% activity=the plants have died, 0% activity=like control plants. Tables D1 to D8 below show the effects of selected compounds of the general formula (I) according to Tables 1.1 to 1.150 on various harmful plants and at an application rate corresponding to 1280 g/ha, which were obtained by the experimental procedure mentioned above.

Matricaria inodora [8] = assay: as above; settings: application rate 1280 g/ha, scored visually after about 3 weeks, Table D7
Excerpt: as §3

Stellaria media [9] = assay: as above; settings: application rate 1280 g/ha, scored visually after about 3 weeks, Table D8
Excerpt: as §3

Matricaria inodora [10] = assay: Herbicidal post-emergence action (Part 2), 1280 g/ha; settings: application rate 1280 g/ha, rated visually after about 3 weeks, Table C6
Description: as §2

Abutilon theophrasti [11] = assay: Herbicidal pre-emergence action (Part 2), 1280 g/ha; settings: application rate 1280 g/ha, scored visually after about 3 weeks, Table D5
Excerpt: as §3

Poa annua = assay: as above; settings: application rate 1280 g/ha, scored visually after about 3 weeks, Table D3
Excerpt: as §3

Echinochloa crus-galli = assay: as above; settings: application rate 1280 g/ha, scored visually after about 3 weeks, Table D1
Excerpt: as §3

SMILES: Cc1c(N2C(=O)N(C)CCC2O)noc1C(C)(C)C (stereo not shown) [I.1-177]
- Amaranthus retroflexus (efficacy in %) (Amaranthus retroflexus [1]): 90%
- Digitaria sanguinalis (efficacy in %) (Digitaria sanguinalis): 100%
- Polygonum convolvulus (efficacy in %) (Polygonum convolvulus): 100%
- Setaria viridis (efficacy in %) (Setaria viridis): 90%
- Viola tricolor (efficacy in %) (Viola tricolor): 90%

SMILES: C=CCC(C)(C)c1cc(N2C(=O)N(C)CCC2O)no1 (stereo not shown) [I.1-199]
- Abutilon theophrasti (efficacy in %) (Abutilon theophrasti [2]): 100%
- Alopecurus myosuroides (efficacy in %) (Alopecurus myosuroides): 90%
- Amaranthus retroflexus (efficacy in %) (Amaranthus retroflexus [1]): 100%
- Hordeum murinum (efficacy in %) (Hordeum murinum): 80%
- Matricaria inodora (efficacy in %) (Matricaria inodora [3]): 100%
- Polygonum convolvulus (efficacy in %) (Polygonum convolvulus): 90%
- Stellaria media (efficacy in %) (Stellaria media [4]): 100%
- Viola tricolor (efficacy in %) (Viola tricolor): 100%

SMILES: COCC(C)(C)c1cc(N2C(=O)N(C)CCC2O)no1 (stereo not shown) [I.1-200]
- Matricaria inodora (efficacy in %) (Matricaria inodora [3]): 90%
- Pharbitis purpurea (efficacy in %) (Pharbitis purpurea): 100%
- Stellaria media (efficacy in %) (Stellaria media [4]): 80%
- Viola tricolor (efficacy in %) (Viola tricolor): 80%

SMILES: CN1CCC(O)N(c2noc(C(C)(C)C)c2Br)C1=O (stereo not shown) [I.1-207]
- Amaranthus retroflexus (efficacy in %) (Amaranthus retroflexus [1]): 90%
- Avena fatua (efficacy in %) (Avena fatua): 90%
- Digitaria sanguinalis (efficacy in %) (Digitaria sanguinalis): 100%
- Pharbitis purpurea (efficacy in %) (Pharbitis purpurea): 100%
- Polygonum convolvulus (efficacy in %) (Polygonum convolvulus): 100%
- Setaria viridis (efficacy in %) (Setaria viridis): 100%
- Stellaria media (efficacy in %) (Stellaria media [4]): 100%
- Viola tricolor (efficacy in %) (Viola tricolor): 100%

SMILES: CN1CCC(O)N(c2cc(C(C)(C)F)ncn2)C1=O (stereo not shown) [I.1-503]
- Avena fatua (efficacy in %) (Avena fatua): 100%
- Matricaria inodora (efficacy in %) (Matricaria inodora [3]): 100%
- Viola tricolor (efficacy in %) (Viola tricolor): 100%

SMILES: CN1CCC(O)N(C2=NOC(C)(C)C2)C1=O (stereo not shown) [I.1-709]
- Alopecurus myosuroides (efficacy in %) (Alopecurus myosuroides): 100%
- Digitaria sanguinalis (efficacy in %) (Digitaria sanguinalis): 100%
- Polygonum convolvulus (efficacy in %) (Polygonum convolvulus): 100%
- Stellaria media (efficacy in %) (Stellaria media [4]): 100%

SMILES: CC(=O)OC1CCN(C)C(=O)N1c1cc(C(F)(F)F)c(Cl)cn1 (stereo not shown) [I.2-451]
- Amaranthus retroflexus (Amaranthus retroflexus [5]): 100%
- Stellaria media (Stellaria media [6]): 100%
- Amaranthus retroflexus (Amaranthus retroflexus [7]): 100%
- Matricaria inodora (Matricaria inodora [8]): 90%
- Stellaria media (Stellaria media [9]): 100%

SMILES: CCC(=O)OC1CCN(C)C(=O)N1c1cc(C(C)(C)C)no1 (stereo not shown) [I.3-290, 3-(3-tert-Butyl-1,2-oxazol-5-yl)-1-methyl-2-oxohexahydropyrimidin-4-yl Propionate]
- Amaranthus retroflexus (Amaranthus retroflexus [5]): 100%
- Matricaria inodora (Matricaria inodora [10]): 90%
- Stellaria media (Stellaria media [6]): 100%
- Abutilon theophrasti (Abutilon theophrasti [11]): 100%
- Amaranthus retroflexus (Amaranthus retroflexus [7]): 100%
- Matricaria inodora (Matricaria inodora [8]): 100%
- Poa Annua (Poa annua): 100%
- Stellaria media (Stellaria media [9]): 100%

SMILES: CCC(=O)OC1CCN(C)C(=O)N1c1cc(C(F)(F)F)c(Cl)cn1 (stereo not shown) [I.3-451]
- Amaranthus retroflexus (Amaranthus retroflexus [5]): 100%
- Stellaria media (Stellaria media [6]): 100%
- Amaranthus retroflexus (Amaranthus retroflexus [7]): 100%
- Echinochloa crus-galli (Echinochloa crus-galli): 100%
- Matricaria inodora (Matricaria inodora [8]): 90%
- Poa Annua (Poa annua): 90%
- Stellaria media (Stellaria media [9]): 100%

SMILES: CCC(=O)OC1CCN(C)C(=O)N1c1cc(C(F)(F)F)c(Br)cn1 (stereo not shown) [I.3-464]
- Amaranthus retroflexus (efficacy in %) (Amaranthus retroflexus [1]): 90%
- Polygonum convolvulus (efficacy in %) (Polygonum convolvulus): 90%
- Setaria viridis (efficacy in %) (Setaria viridis): 90%
- Stellaria media (efficacy in %) (Stellaria media [4]): 100%
- Viola tricolor (efficacy in %) (Viola tricolor): 100%

SMILES: CCCC(=O)OC1CCN(C)C(=O)N1c1cc(C(C)(C)C)no1 (stereo not shown) [I.4-290]
- Abutilon theophrasti (Abutilon theophrasti [11]): 100%
- Amaranthus retroflexus (Amaranthus retroflexus [7]): 100%
- Matricaria inodora (Matricaria inodora [8]): 90%
- Poa Annua (Poa annua): 90%
- Stellaria media (Stellaria media [9]): 100%

SMILES: CCCC(=O)OC1CCN(C)C(=O)N1c1cc(C(F)(F)F)ccn1 (stereo not shown) [I.4-449]
- Amaranthus retroflexus (Amaranthus retroflexus [5]): 100%
- Stellaria media (Stellaria media [6]): 90%
- Amaranthus retroflexus (Amaranthus retroflexus [7]): 100%
- Matricaria inodora (Matricaria inodora [8]): 100%
- Poa Annua (Poa annua): 90%
- Stellaria media (Stellaria media [9]): 100%

SMILES: CCCC(=O)OC1CCN(C)C(=O)N1c1cc(C(F)(F)F)c(Cl)cn1 (stereo not shown) [I.4-451]
- Amaranthus retroflexus (Amaranthus retroflexus [5]): 100%
- Stellaria media (Stellaria media [6]): 100%
- Amaranthus retroflexus (Amaranthus retroflexus [7]): 100%
- Stellaria media (Stellaria media [9]): 100%

SMILES: CC(C)CC(=O)OC1CCN(C)C(=O)N1c1cc(C(F)(F)F)ccn1 (stereo not shown) [I.7-449]
- Amaranthus retroflexus (Amaranthus retroflexus [5]): 100%
- Matricaria inodora (Matricaria inodora [10]): 90%
- Amaranthus retroflexus (Amaranthus retroflexus [7]): 100%
- Matricaria inodora (Matricaria inodora [8]): 100%
- Poa Annua (Poa annua): 90%
- Stellaria media (Stellaria media [9]): 100%

SMILES: CC1CC(O)N(c2cc(C(F)(F)F)ccn2)C(=O)N1C (stereo not shown) [I.41-449]
- Alopecurus myosuroides (efficacy in %) (Alopecurus myosuroides): 90%
- Amaranthus retroflexus (efficacy in %) (Amaranthus retroflexus [1]): 100%
- Matricaria inodora (efficacy in %) (Matricaria inodora [3]): 100%
- Stellaria media (efficacy in %) (Stellaria media [4]): 100%
- Viola tricolor (efficacy in %) (Viola tricolor): 100%

SMILES: CCCC(=O)OC1CC(C)N(C)C(=O)N1c1cc(C(F)(F)F)ccn1 (stereo not shown) [I.44-449]
- Stellaria media (Stellaria media [6]): 90%
- Amaranthus retroflexus (Amaranthus retroflexus [7]): 100%
- Echinochloa crus-galli (Echinochloa crus-galli): 100%
- Matricaria inodora (Matricaria inodora [8]): 90%
- Stellaria media (Stellaria media [9]): 100%

SMILES: CCC(=O)OC1N(c2cc(C(C)(C)C)on2)C(=O)N(C)CC1(C)C (stereo not shown) [I.63-162]
- Amaranthus retroflexus (Amaranthus retroflexus [5]): 100%
- Matricaria inodora (Matricaria inodora [10]): 100%
- Stellaria media (Stellaria media [6]): 100%
- Abutilon theophrasti (Abutilon theophrasti [11]): 100%
- Amaranthus retroflexus (Amaranthus retroflexus [7]): 100%
- Matricaria inodora (Matricaria inodora [8]): 90%
- Poa Annua (Poa annua): 100%
- Stellaria media (Stellaria media [9]): 100%

SMILES: CON1CCC(O)N(c2cc(C(C)(C)C)on2)C1=O (stereo not shown) [I.91-162]
- Alopecurus myosuroides (efficacy in %) (Alopecurus myosuroides): 80%
- Amaranthus retroflexus (efficacy in %) (Amaranthus retroflexus [1]): 90%
- Digitaria sanguinalis (efficacy in %) (Digitaria sanguinalis): 100%
- Polygonum convolvulus (efficacy in %) (Polygonum convolvulus): 100%
